From ChEMBL document CHEMBL1201862, “PubChem BioAssay data set” (2004)
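Cultured in 96-well plates, cells were exposed to test compound for 48 hours across five concentrations. Here, GI50 denotes the concentration required for 50% inhibition of growth.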 The source made the active and inactive calls. No stated cut-off is given here; in the data, active = GI50 up to about 1.1 µM and inactive = higher.

How the values were obtained:
Assay in all cases: NCI anticancer screen, dose series, 48 h
[1] = test system: SNB-75
[2] = test system: MOLT-4
[3] = test system: COLO 205
[4] = test system: 786-0
[5] = test system: PC-3
[6] = test system: M14
[7] = test system: U-251
[8] = test system: UACC-62
[9] = test system: OVCAR-3
[10] = test system: ACHN
[11] = test system: SF-539
[12] = test system: MDA-N
[13] = test system: SK-MEL-5
[14] = test system: DU-145
[15] = test system: MCF7
[16] = test system: KM12
[17] = test system: RPMI-8226
[18] = test system: UACC-257
[19] = test system: OVCAR-5
[20] = test system: SN12C
[21] = test system: SK-MEL-28
[22] = test system: IGROV-1
[23] = test system: SNB-19
[24] = test system: SF-295
[25] = test system: A498
[26] = test system: HOP-92
[27] = test system: SR
[28] = test system: NCI/ADR-RES
[29] = test system: Malme-3M
[30] = test system: HCT-15
[31] = test system: OVCAR-8
[32] = test system: HT-29
[33] = test system: SW-620
[34] = test system: A549
[35] = test system: CCRF-CEM
[36] = test system: TK-10
[37] = test system: UO-31
[38] = test system: T47D
[39] = test system: NCI-H522
[40] = test system: SK-OV-3
[41] = test system: RXF 393
[42] = test system: MDA-MB-231
[43] = test system: HL-60
[44] = test system: HCC 2998
[45] = test system: Hs-578T
[46] = test system: HCT-116
[47] = test system: SF-268
[48] = test system: HOP-62
[49] = test system: NCI-H226
[50] = test system: EKVX
[51] = test system: BT-549
[52] = test system: MDA-MB-435
[53] = test system: K562
[54] = test system: LOX IMVI
[55] = test system: SK-MEL-2
[56] = test system: NCI-H460
[57] = test system: OVCAR-4
[58] = test system: NCI-H23
[59] = test system: CAKI-1

`COc1ccc2nc3cc([N+](=O)[O-])ccc3c(NNc3ccccc3)c2c1` was tested, and the GI50 [1] was 49.1 µM (inactive), the GI50 [2] was 21 µM (inactive) and the GI50 [3] was 10.8 µM (inactive). For the same molecule, the GI50 [4] was 18.4 µM (inactive), the GI50 [5] was 35.4 µM (inactive) and the GI50 [6] was 27.5 µM (inactive). The GI50 [7] was 18.7 µM (inactive), the GI50 [8] was 2 µM (inactive) and the GI50 [9] was 30 µM (inactive). For the same molecule, the GI50 [10] was 30 µM (inactive), the GI50 [11] was 26.8 µM (inactive) and the GI50 [12] was 29.5 µM (inactive). For the same molecule, the GI50 [13] was 16.7 µM (inactive), the GI50 [14] was 42.1 µM (inactive) and the GI50 [15] was 10.8 µM (inactive). The GI50 [16] was 12.4 µM (inactive), the GI50 [17] was 17.5 µM (inactive) and the GI50 [18] was 1.19 µM (inactive). The GI50 [19] was 2.07 µM (inactive), the GI50 [20] was 30.2 µM (inactive) and the GI50 [21] was 77.6 µM (inactive). For the same molecule, the GI50 [22] was 2.93 µM (inactive), the GI50 [23] was 56.4 µM (inactive) and the GI50 [24] was 35.5 µM (inactive). For the same molecule, the GI50 [25] was 0.0681 µM (active), the GI50 [26] was 19.8 µM (inactive) and the GI50 [27] was 14.8 µM (inactive). For the same molecule, the GI50 [28] was 31 µM (inactive), the GI50 [29] was 20.3 µM (inactive) and the GI50 [30] was 22.6 µM. The GI50 [31] was 39.3 µM (inactive), the GI50 [32] was 13.8 µM (inactive) and the GI50 [33] was 17.3 µM (inactive). The GI50 [34] was 13.9 µM (inactive), the GI50 [35] was 23.2 µM (inactive) and the GI50 [36] was 2.58 µM (inactive). The GI50 [37] was 31.4 µM (inactive), the GI50 [38] was 26.9 µM (inactive) and the GI50 [39] was 20.7 µM (inactive). For the same molecule, the GI50 [40] was > 73.6 µM (inactive), the GI50 [41] was 47.9 µM (inactive) and the GI50 [42] was 20.6 µM (inactive). The GI50 [43] was 18.7 µM (inactive), the GI50 [44] was 23.2 µM (inactive) and the GI50 [45] was 26.5 µM (inactive). The GI50 [46] was 11.4 µM (inactive), the GI50 [47] was 30.8 µM (inactive) and the GI50 [48] was 27.7 µM (inactive). The GI50 [49] was 0.596 µM (active), the GI50 [50] was 16 µM (inactive) and the GI50 [51] was 28.5 µM (inactive). The GI50 [52] was 29.6 µM (inactive), the GI50 [53] was 5.69 µM (inactive) and the GI50 [54] was 29 µM (inactive). For the same molecule, the GI50 [55] was 27.4 µM (inactive), the GI50 [56] was 11.7 µM (inactive) and the GI50 [57] was 60.7 µM (inactive). The GI50 [58] was 34.7 µM (inactive).

In the case of `CCCCCCCC/C=C\CCCCCCC/C=C1/C[C@](/C=C/C(=O)OC)(CO)OC1=O`, the GI50 [1] is reported as 7.66 µM (inactive), the GI50 [2] is reported as 1.3 µM (inactive) and the GI50 [3] is reported as 1.57 µM (inactive). For the same molecule, the GI50 [4] was 0.908 µM (active), the GI50 [5] was 2.58 µM (inactive) and the GI50 [6] was 2.05 µM (inactive). For the same molecule, the GI50 [7] was 6.03 µM (inactive), the GI50 [8] was 9.35 µM (inactive) and the GI50 [9] was 11.6 µM (inactive). For the same molecule, the GI50 [10] was 3.11 µM (inactive), the GI50 [11] was 1.01 µM (active) and the GI50 [12] was 0.773 µM (active). For the same molecule, the GI50 [13] was 2.84 µM (inactive), the GI50 [14] was 9.06 µM (inactive) and the GI50 [15] was 7.41 µM (inactive). The GI50 [16] was 10.9 µM (inactive), the GI50 [18] was 15.6 µM (inactive) and the GI50 [19] was 7.46 µM (inactive). The GI50 [20] was 2.86 µM (inactive), the GI50 [21] was 2.77 µM (inactive) and the GI50 [22] was 11.5 µM (inactive). For the same molecule, the GI50 [23] was 7.16 µM (inactive), the GI50 [24] was 2.29 µM (inactive) and the GI50 [25] was 8.67 µM (inactive). For the same molecule, the GI50 [26] was 2.4 µM (inactive), the GI50 [27] was 3.92 µM (inactive) and the GI50 [28] was 10.4 µM (inactive). For the same molecule, the GI50 [29] was 2.15 µM (inactive), the GI50 [30] was 8.41 µM and the GI50 [31] was 6.65 µM (inactive). For the same molecule, the GI50 [32] was 7.71 µM (inactive), the GI50 [33] was 2.66 µM (inactive) and the GI50 [34] was 2.37 µM (inactive). The GI50 [35] was 1.01 µM (active), the GI50 [36] was 2.68 µM (inactive) and the GI50 [37] was 1.77 µM (inactive). For the same molecule, the GI50 [38] was 7.38 µM (inactive), the GI50 [39] was 5.6 µM (inactive) and the GI50 [40] was 10.9 µM (inactive). The GI50 [41] was 14.2 µM (inactive), the GI50 [42] was 3.99 µM (inactive) and the GI50 [43] was 1.63 µM (inactive). For the same molecule, the GI50 [44] was 4.18 µM (inactive), the GI50 [45] was 0.923 µM (active) and the GI50 [46] was 4.56 µM (inactive). For the same molecule, the GI50 [47] was 6.9 µM (inactive), the GI50 [48] was 3.44 µM (inactive) and the GI50 [49] was 5.14 µM (inactive). For the same molecule, the GI50 [59] was 1.29 µM (inactive), the GI50 [50] was 9.73 µM (inactive) and the GI50 [51] was 5.02 µM (inactive). The GI50 [52] was 0.904 µM (active), the GI50 [53] was 0.561 µM (active) and the GI50 [54] was 1.6 µM (inactive). The GI50 [55] was 13.5 µM (inactive), the GI50 [56] was 2.15 µM (inactive) and the GI50 [57] was 6.58 µM (inactive). The GI50 [58] was 11.2 µM (inactive).

In the case of `O=C(CCC=C(S(=O)(=O)c1ccccc1)S(=O)(=O)c1ccccc1)c1ccccc1`, the GI50 [1] is reported as 3.61 µM (inactive), the GI50 [2] is reported as 3.98 µM (inactive) and the GI50 [3] is reported as 7.11 µM (inactive). For the same molecule, the GI50 [4] was 3.21 µM (inactive), the GI50 [5] was 3.64 µM (inactive) and the GI50 [6] was 7.1 µM (inactive). The GI50 [7] was 4.03 µM (inactive), the GI50 [8] was 6.92 µM (inactive) and the GI50 [9] was 4.27 µM (inactive). The GI50 [10] was 5.93 µM (inactive), the GI50 [11] was 2.96 µM (inactive) and the GI50 [12] was 3.69 µM (inactive). For the same molecule, the GI50 [13] was 6.97 µM (inactive), the GI50 [14] was 5.64 µM (inactive) and the GI50 [15] was 4.47 µM (inactive). For the same molecule, the GI50 [16] was 10.9 µM (inactive), the GI50 [18] was 8.91 µM (inactive) and the GI50 [19] was 10.7 µM (inactive). The GI50 [20] was 3.26 µM (inactive), the GI50 [21] was 12.1 µM (inactive) and the GI50 [22] was 12.3 µM (inactive). For the same molecule, the GI50 [23] was 13.6 µM (inactive), the GI50 [24] was 22.5 µM (inactive) and the GI50 [25] was 17.3 µM (inactive). For the same molecule, the GI50 [26] was 14.5 µM (inactive), the GI50 [27] was 3.01 µM (inactive) and the GI50 [28] was 4.06 µM (inactive). The GI50 [29] was 4.45 µM (inactive), the GI50 [30] was 5.98 µM and the GI50 [31] was 4.58 µM (inactive). The GI50 [32] was 4.91 µM (inactive), the GI50 [33] was 3.4 µM (inactive) and the GI50 [34] was 17.1 µM (inactive). The GI50 [36] was 6.38 µM (inactive), the GI50 [37] was 6.15 µM (inactive) and the GI50 [38] was 5.43 µM (inactive). The GI50 [39] was 2.76 µM (inactive), the GI50 [40] was 25.4 µM (inactive) and the GI50 [41] was 4.18 µM (inactive). For the same molecule, the GI50 [42] was 8.04 µM (inactive), the GI50 [43] was 1.86 µM (inactive) and the GI50 [44] was 7.66 µM (inactive). The GI50 [45] was 5.22 µM (inactive), the GI50 [46] was 3.42 µM (inactive) and the GI50 [47] was 4.59 µM (inactive). The GI50 [48] was 16.8 µM (inactive), the GI50 [49] was 17.4 µM (inactive) and the GI50 [59] was 5.96 µM (inactive). The GI50 [50] was 12.7 µM (inactive), the GI50 [51] was 5.82 µM (inactive) and the GI50 [52] was 5.25 µM (inactive). For the same molecule, the GI50 [53] was 3.73 µM (inactive), the GI50 [54] was 3.26 µM (inactive) and the GI50 [55] was 2.38 µM (inactive). For the same molecule, the GI50 [56] was 12.9 µM (inactive) and the GI50 [57] was 9.33 µM (inactive).
